In one test the target is T1, FGFR3 (Homo sapiens, UniProt P22607).
T1 construct: made in house; host or cells: E. coli (BL21-derived), T7 phage
The experiment in a line: Kinase binding assay (kinase-tagged T7 phage, affinity beads, qPCR), Kd. To be noted: read-out: FGFR3 (Kd nM). A digest of the protocol:
(§1)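 Competition binding; kinase-tagged T7 phage lysate vs immobilised biotinylated ligand on streptavidin beads, 0.9% DMSO final. 11-pt 3-fold dilutions, 3 DMSO controls. qPCR of eluted kinase; Kd by Hill fit, slope −1.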
A general note: In qPCR the cycle at which signal appears reflects the starting amount.

Another test deals with T2, FGFR1 (Homo sapiens, UniProt P11362).
T2 construct: made in house; host or cells: E. coli (BL21-derived), T7 phage
T2 sequence (P11362 22-822): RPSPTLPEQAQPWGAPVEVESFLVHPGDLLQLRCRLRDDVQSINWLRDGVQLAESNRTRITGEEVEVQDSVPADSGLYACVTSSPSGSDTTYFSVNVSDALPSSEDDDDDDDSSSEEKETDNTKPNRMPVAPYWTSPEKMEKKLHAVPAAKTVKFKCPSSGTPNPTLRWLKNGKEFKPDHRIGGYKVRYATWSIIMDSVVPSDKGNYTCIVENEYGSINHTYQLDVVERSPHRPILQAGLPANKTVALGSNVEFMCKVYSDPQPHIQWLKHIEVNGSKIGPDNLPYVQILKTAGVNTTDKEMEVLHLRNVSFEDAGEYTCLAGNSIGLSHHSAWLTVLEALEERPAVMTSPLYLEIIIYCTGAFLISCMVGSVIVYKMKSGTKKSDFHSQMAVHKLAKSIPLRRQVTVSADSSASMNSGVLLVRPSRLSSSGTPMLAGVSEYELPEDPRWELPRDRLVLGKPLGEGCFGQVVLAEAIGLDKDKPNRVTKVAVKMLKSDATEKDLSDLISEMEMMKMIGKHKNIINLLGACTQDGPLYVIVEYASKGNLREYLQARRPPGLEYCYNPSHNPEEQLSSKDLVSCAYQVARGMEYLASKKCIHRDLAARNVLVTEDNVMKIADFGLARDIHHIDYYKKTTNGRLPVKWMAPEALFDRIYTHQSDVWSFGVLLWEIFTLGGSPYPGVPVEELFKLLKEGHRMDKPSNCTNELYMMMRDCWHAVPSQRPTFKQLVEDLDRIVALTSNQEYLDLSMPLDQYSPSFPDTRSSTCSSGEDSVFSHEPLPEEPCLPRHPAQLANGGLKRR
Described as above. The note with it: read-out: FGFR1 (Kd nM). In a few lines: as §1

Test [1] deals with RT112/84 cell line (FGFR3-fusion). The experiment in a line: Cancer cell line cell viability assay (Cell Titer-Glo), 72 hr. It counts as cell-based. To be noted: Homo sapiens, RT112/84, RT112/84 cell line (FGFR3-fusion). The source says: (§2) Experimental Purpose: To detect the change of intracellular ATP by Cell Titer-Glo® and to evaluate the inhibitory effect of the compounds on cancer cell lines by determining the in vitro IC50 value of the compounds.
(§3) Cell Titer-Glo® 2.0 Luminescent cell viability assay reagent was purchased from Promega (Madison, WI). KG-1, KATO-III, and MDA-MB-453 cell lines were purchased from American Type Culture Collection (Manassas, VA). RT112/84 cell line was purchased from Millipore-Sigma (St. Louis, MO). HuH7 cells were purchased from Seikisui Xenotech (Kansas City, KS). RT112/84 and MDA-MB-453 cells were cultured in RPMI1640 media supplemented with 10% fetal bovine serum. KG-1 and KATO-III cell lines were cultured in IMDM media supplemented with 20% FBS. HuH7 cells were cultured in IMDM media supplemented with 10% FBS. Cultures were maintained at 37° C. in a humidified atmosphere of 5% CO2 and 95% air.
(§4) Cell Viability Assay Procedure: Cells were plated in 96-well clear bottom/white plates (Corning #3903) at a range of densities depending on the optimal assay window (5,000-20,000 cells/well in […] of media), incubated overnight. The next day, test compound DMSO stock solutions were made at 10 mM and […] final concentration. Compounds were then added to cells in a 9-dose, 4-fold dilution series starting at 3 μM with an HP 300e Digital Dispenser (each dose was applied in triplicate). DMSO was backfilled to each well up to 301 nL total volume of test compound+DMSO, and a total of 301 nL DMSO was added to a control/no test compound well in triplicate. The cells in cell culture plates were incubated with the compounds at 37° C. and 5% CO2 for 72 hours-120 hours depending on the cell line. Then 50 μl of Cell Titer Glo 2.0 reagent was added to each well of the cell culture plates. The contents were covered from light and mixed on an orbital shaker at room temperature for minimum of 10 min. Luminescence was recorded by a Clariostar Plus Microplate Reader (BMG Labtech, Cary, NC). Cells were assessed as a percentage of DMSO only treated control cells. Curves were plotted and IC50 values were calculated using the GraphPad Prism 9 program based on a sigmoidal dose-response equation (log (inhibitor) vs. response—Variable slope, 4-parameter).
On the technique in general: ATP-based viability assays read luminescence as a measure of living cells.

The test system of test [2] is KATO-III cell line (FGFR2 amplification). The test is described as above. In kind it is cell-based. The note with it: Homo sapiens, KATO III.
Source text: as §2, §3, §4

Test [3] deals with KG-1 cell line (FGFR 1-fusion). The description is as above. In kind it is cell-based. To be noted: Homo sapiens, KG-1, KG-1 cell line (FGFR1-fusion).
Source text: as §2, §3, §4

A further test addresses T3, FGFR3 (V555M) (Homo sapiens, UniProt P22607, V555M).
T3 construct: made in house; host or cells: E. coli (BL21-derived), T7 phage
The test can be described thus: Kinase binding assay (kinase-tagged T7 phage, affinity beads, qPCR), Kd. The note with it: V555M mutant; read-out: FGFR3 (V555M) (Kd nM). A digest of the protocol:
as §1

The next test deals with T4, FGFR4 (Homo sapiens, UniProt P22455).
T4 construct: made in house; host or cells: E. coli (BL21-derived), T7 phage
T4 sequence (P22455 22-802): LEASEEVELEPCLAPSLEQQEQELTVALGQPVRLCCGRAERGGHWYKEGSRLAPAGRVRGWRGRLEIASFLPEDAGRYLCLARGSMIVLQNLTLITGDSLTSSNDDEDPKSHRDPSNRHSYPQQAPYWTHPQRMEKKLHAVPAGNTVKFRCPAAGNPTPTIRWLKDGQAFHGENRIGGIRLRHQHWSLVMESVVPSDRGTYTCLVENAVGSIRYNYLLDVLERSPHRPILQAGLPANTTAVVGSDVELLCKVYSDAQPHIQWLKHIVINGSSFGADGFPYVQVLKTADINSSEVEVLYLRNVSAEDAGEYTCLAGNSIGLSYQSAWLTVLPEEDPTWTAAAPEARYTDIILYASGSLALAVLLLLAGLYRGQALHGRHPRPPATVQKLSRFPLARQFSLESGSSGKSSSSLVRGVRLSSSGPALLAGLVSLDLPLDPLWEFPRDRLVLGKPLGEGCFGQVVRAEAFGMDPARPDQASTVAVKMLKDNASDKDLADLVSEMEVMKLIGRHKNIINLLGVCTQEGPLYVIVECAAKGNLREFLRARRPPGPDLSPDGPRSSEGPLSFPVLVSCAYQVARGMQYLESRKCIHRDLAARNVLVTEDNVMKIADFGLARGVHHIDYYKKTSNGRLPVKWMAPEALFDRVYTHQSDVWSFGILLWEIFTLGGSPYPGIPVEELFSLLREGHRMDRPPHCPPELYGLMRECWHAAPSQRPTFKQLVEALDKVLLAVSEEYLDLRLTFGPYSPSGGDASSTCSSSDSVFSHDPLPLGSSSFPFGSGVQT
The description is as above. The note with it: read-out: FGFR4 (Kd nM). In a few lines: as §1

In another test the target is T5, FGFR2 (Homo sapiens, UniProt P21802).
T5 construct: made in house; host or cells: E. coli (BL21-derived), T7 phage
T5 sequence (P21802 22-821): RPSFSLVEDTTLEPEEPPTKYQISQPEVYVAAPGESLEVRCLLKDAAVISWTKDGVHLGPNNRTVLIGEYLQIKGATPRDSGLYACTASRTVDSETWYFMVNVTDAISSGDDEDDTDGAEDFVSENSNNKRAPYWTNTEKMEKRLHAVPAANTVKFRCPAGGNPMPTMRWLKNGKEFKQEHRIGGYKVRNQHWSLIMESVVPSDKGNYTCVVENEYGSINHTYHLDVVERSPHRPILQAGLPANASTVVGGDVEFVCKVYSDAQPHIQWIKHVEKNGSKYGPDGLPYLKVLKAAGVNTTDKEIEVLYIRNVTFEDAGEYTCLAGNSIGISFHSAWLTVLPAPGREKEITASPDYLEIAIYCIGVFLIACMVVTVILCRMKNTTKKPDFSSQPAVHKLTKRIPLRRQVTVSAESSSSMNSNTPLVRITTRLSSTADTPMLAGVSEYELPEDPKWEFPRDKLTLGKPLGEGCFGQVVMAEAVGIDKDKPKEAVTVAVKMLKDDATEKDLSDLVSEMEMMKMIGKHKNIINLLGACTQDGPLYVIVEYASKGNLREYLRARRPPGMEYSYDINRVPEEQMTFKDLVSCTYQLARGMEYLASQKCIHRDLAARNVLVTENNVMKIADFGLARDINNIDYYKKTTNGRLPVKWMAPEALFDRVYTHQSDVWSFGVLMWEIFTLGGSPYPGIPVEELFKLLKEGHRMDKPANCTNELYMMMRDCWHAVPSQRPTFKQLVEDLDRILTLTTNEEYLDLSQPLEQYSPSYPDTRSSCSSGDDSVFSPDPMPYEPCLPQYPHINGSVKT
The description is as above. To be noted: read-out: FGFR2 (Kd nM). In a few lines:
as §1

Setting [4] is: kinase binding assay, 11-point 3-fold dilution series.

Experimental findings from patent publication US20250368666A1, “INDAZOLE COMPOUNDS” (TYRA BIOSCIENCES, INC., priority 2022, published 2025) are described below.

Like-named read-outs stand apart in the source and are kept apart here. A value given as a limit tells only on which side of the number the result lay.

T1 sequence (P22607 23-806): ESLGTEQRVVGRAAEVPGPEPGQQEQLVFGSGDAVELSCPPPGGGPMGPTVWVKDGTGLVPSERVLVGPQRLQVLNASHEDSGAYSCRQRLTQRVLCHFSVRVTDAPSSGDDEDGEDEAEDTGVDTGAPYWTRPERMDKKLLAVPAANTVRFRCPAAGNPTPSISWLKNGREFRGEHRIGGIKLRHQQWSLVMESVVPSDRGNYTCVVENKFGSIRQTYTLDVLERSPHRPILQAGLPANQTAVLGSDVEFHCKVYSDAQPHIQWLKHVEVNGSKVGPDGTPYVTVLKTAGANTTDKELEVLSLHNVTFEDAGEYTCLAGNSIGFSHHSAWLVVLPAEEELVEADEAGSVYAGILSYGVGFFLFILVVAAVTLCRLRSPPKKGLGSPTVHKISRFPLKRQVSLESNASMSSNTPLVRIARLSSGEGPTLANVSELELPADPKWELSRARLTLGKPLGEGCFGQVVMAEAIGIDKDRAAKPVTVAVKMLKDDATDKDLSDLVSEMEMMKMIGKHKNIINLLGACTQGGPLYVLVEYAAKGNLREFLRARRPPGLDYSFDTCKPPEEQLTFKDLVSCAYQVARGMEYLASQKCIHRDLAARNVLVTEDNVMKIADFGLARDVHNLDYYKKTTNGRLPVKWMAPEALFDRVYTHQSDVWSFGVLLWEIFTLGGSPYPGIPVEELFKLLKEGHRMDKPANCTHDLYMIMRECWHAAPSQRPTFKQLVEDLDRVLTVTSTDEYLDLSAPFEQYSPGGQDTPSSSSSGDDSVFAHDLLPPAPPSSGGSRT
T3 sequence (P22607 23-806 V555M): as the sequence (P22607 23-806) above, with V533M counted along it

What is called Kd is a measure of binding affinity in units of concentration. For orientation: IC50 means the concentration at which inhibition is half-maximal. With `C[C@H](O)CC1(N)CN(c2ncc(-c3n[nH]c4ccc(O[C@H](C)c5c(Cl)cncc5Cl)cc34)cc2F)C1` [Example 384, (S)-1-(3-amino-1-(5-(5-((R)-1-(3,5-dichloropyridin-4-yl)ethoxy)-1H-indazol-3-yl)-3-fluoropyridin-2-yl)azetidin-3-yl)propan-2-ol], the Kd on FGFR3 (setting [4]) and at FGFR1 (setting [4]) was 1 to 50 nM in each case. Also, the IC50 fell in the range of 0.1 to 50 nM in test [1], 50 to 200 nM in test [2] and 50 to 200 nM in test [3].
`C[C@@H](Oc1ccc2[nH]nc(-c3ccc(N4CC(N)(Cc5ccn(C)n5)C4)nn3)c2c1)c1c(Cl)cncc1Cl` [Example 306, (R)-1-(6-(5-(1-(3,5-dichloropyridin-4-yl)ethoxy)-1H-indazol-3-yl)pyridazin-3-yl)-3-((1-methyl-1H-pyrazol-3-yl)methyl)azetidin-3-amine]: the Kd on FGFR3 and at FGFR1 was 1 to 50 nM throughout. Moreover, the IC50 lay in the range of 0.1 to 50 nM in test [1], 50 to 200 nM in test [2] and 200 to 1000 nM in test [3].
In the case of `C[C@@H](Oc1ccc2[nH]nc(-c3cnc(N4CC(C)(NCCC#N)C4)c(F)c3)c2c1)c1c(Cl)cncc1Cl` [Example 310, (R)-3-((1-(5-(5-(1-(3,5-dichloropyridin-4-yl)ethoxy)-1H-indazol-3-yl)-3-fluoropyridin-2-yl)-3-methylazetidin-3-yl)amino)propane-nitrile], the Kd on FGFR3 and on FGFR1 was 1 to 50 nM in each case. In addition, the values for the IC50 in test [1] and in test [3] were 0.1 to 50 nM and 50 to 200 nM, respectively.
Take `C[C@@H](Oc1ccc2[nH]nc(-c3cnc(N4CC(C)(NCCF)C4)c(F)c3)c2c1)c1c(Cl)cncc1Cl` [Example 303, (R)-1-(5-(5-(1-(3,5-dichloropyridin-4-yl)ethoxy)-1H-indazol-3-y1)-3-fluoropyridin-2-yl)-N-(2-fluoroethyl)-3-methylazetidin-3-amine]: the Kd at FGFR3 and at FGFR1 was 1 to 50 nM in each case. Moreover, the values for the IC50 in test [1], in test [2] and in test [3] were 0.1 to 50 nM, 0.1 to 50 nM and 50 to 200 nM, respectively.
For `CCCC1(N)CN(c2ccc(-c3n[nH]c4ccc(O[C@H](C)c5c(Cl)cncc5Cl)cc34)nn2)C1` [Example 295, (R)-1-(6-(5-(1-(3,5-dichloropyridin-4-yl)ethoxy)-1H-indazol-3-yl)pyridazin-3-yl)-3-propylazetidin-3-amine], the dissociation constant Kd at FGFR3 and at FGFR1 was 1 to 50 nM throughout. Besides, the 50% inhibitory concentration (IC50) was in the range of 0.1 to 50 nM in test [1] and 50 to 200 nM in test [2].
`C[C@@H](Oc1ccc2[nH]nc(-c3ccc(N4CC(C)(NCCF)C4)nn3)c2c1)c1c(Cl)cncc1Cl` [Example 309, (R)-1-(6-(5-(1-(3,5-dichloropyridin-4-yl)ethoxy)-1H-indazol-3-yl)pyridazin-3-yl)-N-(2-fluoroethyl)-3-methylazetidin-3-amine]: the equilibrium dissociation constant (Kd) on FGFR3 and at FGFR1 was 1 to 50 nM throughout. Besides, the figures for the IC50 in test [1] and in test [3] were 0.1 to 50 nM and 50 to 200 nM, respectively.
As to `C[C@@H](Oc1cc2c(-c3ccc(N4CC(C)(CN5CCOCC5)C4)nc3)n[nH]c2cc1F)c1c(Cl)cncc1Cl` [Example 186, (R)-4-((1-(5-(5-(1-(3,5-dichloro-pyridin-4-yl)ethoxy)-6-fluoro-1H-indazol-3-yl)pyridin-2-yl)-3-methylazetidin-3-yl)methyl)morpho-line], the Kd on FGFR3 (V555M), on FGFR3, on FGFR4, on FGFR2 and on FGFR1 was 1 to 50 nM throughout.
Turning to `C[C@@H](Oc1ccc2[nH]nc(-c3cnc(N4CC(C)(N5CCOCC5)C4)c(C#N)c3)c2c1F)c1c(Cl)cncc1Cl` [Example 327, (R)-5-(5-(1-(3,5-dichloropyridin-4-yl)ethoxy)-4-fluoro-1H-indazol-3-yl)-2-(3-methyl-3-morpholinoazetidin-1-yl)nicotinonitrile], the Kd is above 1000 nM on FGFR3 (V555M); above 1000 nM on FGFR3; 50 to 300 nM at FGFR4; above 1000 nM on FGFR2; above 1000 nM on FGFR1.
For the compound `C[C@@H](Oc1ccc2[nH]nc(-c3cnc(N4CC(C)(CS(C)(=O)=O)C4)nc3)c2c1)c1c(Cl)cncc1Cl` [Example 195, (R)-5-(1-(3,5-dichloro-pyridin-4-yl)ethoxy)-3-(2-(3-methyl-3-((methylsulfonyl)-methyl)azetidin-1-yl)pyrimidin-5-yl)-1H-indazole], the dissociation constant (Kd) on FGFR3 (V555M), at FGFR3, at FGFR4, on FGFR2 and on FGFR1 was 1 to 50 nM each time.
On to `C[C@@H](Oc1ccc2[nH]nc(-c3cnc(N4CC(C)(NCCO)C4)c(C#N)c3)c2c1F)c1c(Cl)cncc1Cl` [Example 324, (R)-5-(5-(1-(3,5-dichloropyridin-4-yl)ethoxy)-4-fluoro-1H-indazol-3-yl)-2-(3-((2-hydroxy-ethyl)amino)-3-methylazetidin-1-yl)nicotinonitrile], for which the dissociation constant (Kd) at FGFR3 (V555M) was 300 to 1000 nM; at FGFR3, above 1000 nM; at FGFR4, 1 to 50 nM; on FGFR2, above 1000 nM; at FGFR1, above 1000 nM.
As to `C[C@@H](Oc1ccc2[nH]nc(-c3ccc(N4CC(C)(N5CCP(C)(=O)CC5)C4)nc3)c2c1)c1c(Cl)cncc1Cl` [Example 226, (R)-1-(1-(5-(5-(1-(3,5-dichloropyridin-4-yl)ethoxy)-1H-indazol-3-yl)pyridin-2-yl)-3-methylazetidin-3-yl)-4-methyl-1,4-azaphosphinane 4-oxide], the Kd on FGFR3 (V555M), at FGFR3, at FGFR4, at FGFR2 and on FGFR1 was 1 to 50 nM in each case.
For the compound `C[C@@H](Oc1ccc2[nH]nc(-c3ccc(N4CC(C)(N5CCCC5)C4)nc3)c2c1F)c1c(Cl)cncc1Cl` [Example 177, (R)-5-(1-(3,5-dichloropyridin-4-yl)ethoxy)-4-fluoro-3-(6-(3-methyl-3-(pyrrolidin-1-yl)azetidin-1-yl)pyridin-3-yl)-1H-indazole], the Kd at FGFR3 (V555M) is 1 to 50 nM; on FGFR3 it was 1 to 50 nM; at FGFR4 it was 50 to 300 nM; at FGFR2, 300 to 1000 nM; on FGFR1, 50 to 300 nM.
For the compound `COc1cc2[nH]nc(-c3cnc(N4CCC4)c(F)c3)c2cc1O[C@H](C)c1c(Cl)cnc(C)c1Cl` [Example 58, 3-[6-(azetidin-1-yl)-5-fluoro-3-pyridyl]-5-[(1R)-1-(3,5-dichloro-2-methyl-4-pyridyl)ethoxy]-6-methoxy-1H-indazole], the Kd is 1 to 50 nM on FGFR3 (V555M); 1 to 50 nM at FGFR3; 1 to 50 nM at FGFR4; 1 to 50 nM on FGFR2; 50 to 300 nM on FGFR1.
On to `C[C@@H](Oc1ccc2[nH]nc(-c3cnc(N4CC(C)(CNCCO)C4)c(F)c3)c2c1)c1c(Cl)cncc1Cl` [Example 178, (R)-2-(((1-(5-(5-(1-(3,5-dichloro-pyridin-4-yl)ethoxy)-1H-indazol-3-yl)-3-fluoropyridin-2-yl)-3-methylazetidin-3-yl)methyl)amino) ethanol], for which the Kd on FGFR3 (V555M), on FGFR3, on FGFR4, on FGFR2 and at FGFR1 was 1 to 50 nM in each case.
